Values of other authors as cited in US7700778B2, “Acylated piperidine derivatives as melanocortin-4 receptor agonists” (Merck Sharp & Dohme Corp., priority 2001, dated 2010).

Experiments:
[1] = system: men
[2] = in vivo, po
[3] = system: males with psychogenic erectile dysfunction

Compound | duration of effect ([1]; after an oral dose) [h] | onset of action ([1]; after an oral dose) [min] | share of men/patients in whom effective (adequate response) ([1]; oral) | absorption into the systemic circulation [2] | duration of action ([3]; in vivo) | time to onset of erection ([3]; in vivo) [min] | response rate ([3]; injected intramuscularly or subcutaneously) [%]
Cc1ccc(N(CC2=NCCN2)c2cccc(O)c2)cc1 [phentolamine] | 2 | 5 to 30 | 35-40% | – | – | – | –
Ac-Nle-c[Asp-His-DPhe-Arg-Trp-Lys]-NH2 [MT-II] | – | – | – | not absorbed into the systemic circulation | approximately 2.5 hours | 10 to 20 | 75
